Patent US20200024278A1, “COMPOSITION COMPRISING ANTIBIOTIC COMPOUND AND AN HETEROCYCLIC COMPOUND AND THEIR USE IN PREVENTING OR TREATING BACTERIAL INFECTIONS” (MUTABILIS, priority 2016, published 2020)

How the values were obtained:
Assay in all cases: MIC, broth microdilution (CLSI), substance alone or ATB combined with compound at 4 or 8 μg/mL
[1] = test system: ECO 190317; format: cell-based, E. coli; conditions: Escherichia coli; substance alone; ECO 190317; read-out: MIC
Outline: (§1)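 CLSI M7-A7 broth microdilution. ca-MHB, 5·10^5 CFU/mL log-phase cells, 16-20 h, 35° C, ambient air. Fosfomycin wells + 25 μg/ml glucose-6-phosphate. Visual MIC read.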

[2] = test system: ECO UFR39; format: cell-based, E. coli; conditions: Escherichia coli; substance alone; ECO UFR39; read-out: MIC
Outline: as §1

[3] = test system: KPN BAA-1898; format: cell-based, K. pneumoniae; conditions: Klebsiella pneumoniae, BAA1898; substance alone; KPN BAA-1898; read-out: MIC
Outline: as §1

[4] = test system: KPN UFR42; format: cell-based, K. pneumoniae; conditions: Klebsiella pneumoniae; substance alone; KPN UFR42; read-out: MIC
Outline: as §1

[5] = test system: ECL P99; format: cell-based, E. cloacae; conditions: Enterobacter cloacae; substance alone; ECL P99; read-out: MIC
Outline: as §1

[6] = test system: PAE 105250; format: cell-based, P. aeruginosa; conditions: PAE 105250; for MIC ATB combined with compound: compound @4 μg/ml
Outline: as §1

[7] = test system: PAE UFR48; format: cell-based, P. aeruginosa; conditions: PAE UFR48; for MIC ATB combined with compound: compound @4 μg/ml
Outline: as §1

[8] = test system: PAE UFR90; format: cell-based, P. aeruginosa; conditions: PAE UFR90; for MIC ATB combined with compound: compound @4 μg/ml
Outline: as §1

[9] = test system: SAU 29213; format: cell-based, S. aureus; conditions: for MIC ATB combined with compound: compound @4 μg/ml, SAU 29213
Outline: as §1

[10] = test system: SPN 49619; format: cell-based, S. pneumoniae; conditions: SPN 49619; for MIC ATB combined with compound: compound @4 μg/ml
Outline: as §1

[11] = test system: ABA UFR154; format: cell-based, A. baumannii; conditions: Acinetobacter baumannii, substance alone, read-out: MIC
Experimental: (§2) Compounds of the present invention were assessed against genotyped bacterial strains alone or in combination with an antibacterial. In the assays, MICs of said compounds or combination of antibiotics with fixed concentrations of said compounds (4 or 8 μg/mL) were determined by the broth microdilution method according to the Clinical Laboratory Standards Institute (CLSI-M7-A7). Briefly, compounds alone according to the invention were prepared in DMSO and spotted (2 μL each) on sterile polystyrene plates (Corning, 3788). Combinations of compounds and antibiotics dilutions were prepared in DMSO and spotted (1 μL each) on sterile polystyrene plates (Corning, 3788). Log phase bacterial suspensions were adjusted to a final density of 5·10^5 CFU/mL in cation-adjusted Mueller-Hinton broth (ca-MHB; Becton-Dickinson and Company) and added to each well (98 μL). Assays including Fosfomycin were supplemented with 25 μg/ml of Glucose-6-phosphate. Microplates were incubated for 16-20 h at 35° C. in ambient air. The MIC of the compounds was defined as the lowest concentration of said compounds that prevented bacterial growth as read by visual inspection. The MIC of ATB at each compound concentration was defined as the lowest concentration of ATB that prevented bacterial growth as read by visual inspection.

[12] = test system: ABA UFR155; format: cell-based, A. baumannii; conditions: Acinetobacter baumannii, substance alone, read-out: MIC
Experimental: as §2

[13] = Pseudomonas aeruginosa, substance alone, read-out: MIC

MIC [1]: 4 µg/mL
MIC [2]: 4 µg/mL
MIC [3]: > 32 µg/mL
MIC [4]: > 32 µg/mL
MIC [5]: 16 µg/mL
MIC ATB combined with compound ([6]; ATB ATM): 8 µg/mL
MIC ATB combined with compound ([6]; ATB FEP): 4 µg/mL
MIC ATB combined with compound ([6]; ATB FOS): >128 µg/mL
MIC ATB combined with compound ([6]; ATB MEM): 2 µg/mL
MIC ATB combined with compound ([6]; ATB PIP): >32 µg/mL
MIC [6, 13]: > 32 µg/mL
MIC ATB combined with compound ([7]; ATB ATM): 8 µg/mL
MIC ATB combined with compound ([7]; ATB FEP): 32 µg/mL
MIC ATB combined with compound ([7]; ATB FOS): 16 µg/mL
MIC ATB combined with compound ([7]; ATB MEM): 4 µg/mL
MIC ATB combined with compound ([7]; ATB PIP): 128 µg/mL
MIC [7, 13]: 64 µg/mL
MIC ATB combined with compound ([8]; ATB ATM): 16 µg/mL
MIC ATB combined with compound ([8]; ATB FEP): 8 µg/mL
MIC ATB combined with compound ([8]; ATB FOS): 4 µg/mL
MIC ATB combined with compound ([8]; ATB MEM): 1 µg/mL
MIC ATB combined with compound ([8]; ATB PIP): >32 µg/mL
MIC [8, 13]: > 128 µg/mL
MIC ATB combined with compound ([9]; ATB ATM): >32 µg/mL
MIC ATB combined with compound ([9]; ATB FEP): 4 µg/mL
MIC ATB combined with compound ([9]; ATB FOS): 0.5 µg/mL
MIC ATB combined with compound ([9]; ATB MEM): 0.125 µg/mL
MIC ATB combined with compound ([9]; ATB PIP): 1 µg/mL
MIC ([9]; Staphylococcus aureus, substance alone, SAU 29213 (MSSA 29213), read-out: MIC): > 32 µg/mL
MIC ATB combined with compound ([10]; ATB ATM): >32 µg/mL
MIC ATB combined with compound ([10]; ATB FEP): 0.063 µg/mL
MIC ATB combined with compound ([10]; ATB FOS): 16 µg/mL
MIC ATB combined with compound ([10]; ATB MEM): 0.063 µg/mL
MIC ATB combined with compound ([10]; ATB PIP): 0.5 µg/mL
MIC ([10]; Streptococcus pneumoniae, substance alone, read-out: MIC): > 32 µg/mL
MIC [11]: > 32 µg/mL
MIC [12]: > 32 µg/mL
Structure (SMILES): NCCON=C1C[C@@H](C(N)=O)N2C[C@@H]1N(OS(=O)(=O)[O-])C2=O.[Na+] [Example 2, sodium and 2,2,2-trifluoroacetate [(2S,5S)-4-(2-ammonium-ethoxyimino)-2-carbamoyl-7-oxo-1,6-diazabicyclo[3.2.1]octan-6-yl] sulfate]
